Laboratory results taken from ChEMBL document CHEMBL1201862, “PubChem BioAssay data set” (2004).
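Values below derive from 48-hour exposures of cells grown in 96-well plates, with endpoints linearly interpolated between the two concentrations bracketing the appropriate inhibition level. At the GI50, growth is halved.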 Calls of active or inactive are those of the source. No stated cut-off is given here; in the data, active = GI50 up to about 1.1 µM and inactive = higher.

How the values were obtained:
Test in all cases: NCI tumour cell line growth inhibition, 48 h
[1] = system: ACHN
[2] = system: CAKI-1
[3] = system: DLD-1
[4] = system: HOP-62
[5] = system: HT-29
[6] = system: K562
[7] = system: M14
[8] = system: OVCAR-3
[9] = system: OVCAR-4
[10] = system: OVCAR-5
[11] = system: OVCAR-8
[12] = system: SF-268
[13] = system: SF-295
[14] = system: SF-539
[15] = system: SN12C
[16] = system: SNB-75
[17] = system: UACC-257
[18] = system: UO-31
[19] = system: Hs-578T
[20] = system: MCF7

Measured: GI50

Cc1ccccc1NC(=O)c1ccc([N+](=O)[O-])cc1
inactive: [1] > 100 µM | [2] > 100 µM | [3] > 100 µM | [4] > 100 µM | [5] 51.1 µM | [6] 93.5 µM | [7] > 100 µM | [8] 53.5 µM | [9] > 100 µM | [10] > 100 µM | [11] > 100 µM | [12] > 100 µM | [13] > 100 µM | [14] > 100 µM | [15] > 100 µM | [16] > 100 µM | [17] > 100 µM | [18] > 100 µM

COc1cc(Nc2nc3cc(C(F)(F)F)ccc3nc2C)cc(OC)c1OC
inactive: [1] 8.11 µM | [2] 7.11 µM | [3] 7.1 µM | [4] 16.7 µM | [5] 3 µM | [6] 5.52 µM | [7] 7.6 µM | [8] 16.1 µM | [9] 16.3 µM | [10] 13.3 µM | [11] 11 µM | [12] 16 µM | [13] 1.97 µM | [14] 12.2 µM | [15] 10.4 µM | [16] 15.5 µM | [17] 6.37 µM | [18] 4.22 µM

O=C(NC1C(=O)NNC1c1ccccc1Cl)c1ccccc1 (stereo unspecified)
inactive: [1] > 100 µM | [2] > 100 µM | [3] > 100 µM | [4] > 100 µM | [5] > 100 µM | [6] 39.4 µM | [7] > 100 µM | [8] > 100 µM | [9] > 100 µM | [10] > 100 µM | [11] > 100 µM | [12] > 100 µM | [13] > 100 µM | [14] > 100 µM | [15] > 100 µM | [16] > 100 µM | [17] > 100 µM | [18] > 100 µM

O=C(c1ccco1)N(C(=S)N1CCN(c2ccccc2)CC1)C1CCCCC1
inactive: [1] > 100 µM | [2] > 100 µM | [3] 85.1 µM | [4] > 100 µM | [5] 63.5 µM | [6] > 100 µM | [7] 98.4 µM | [8] > 100 µM | [9] > 100 µM | [10] > 100 µM | [11] > 100 µM | [12] > 100 µM | [13] 79.8 µM | [14] > 100 µM | [15] > 100 µM | [16] 50.5 µM | [17] 72.4 µM | [18] 33.3 µM

OC(CC1SCCCS1)c1ccccc1 (stereo unspecified)
inactive: [1] > 100 µM | [2] > 100 µM | [3] > 100 µM | [4] > 100 µM | [5] > 100 µM | [6] > 100 µM | [7] > 100 µM | [8] > 100 µM | [9] > 100 µM | [10] > 100 µM | [11] > 100 µM | [12] > 100 µM | [13] > 100 µM | [14] > 100 µM | [15] > 100 µM | [16] > 100 µM | [17] > 100 µM | [18] > 100 µM

Cc1cc(N(CCC#N)CCC#N)ccc1/C=C(\NC(=O)/C=C/c1ccccc1)C(=O)NN
inactive: [1] > 80.9 µM | [2] > 100 µM | [3] > 100 µM | [4] 37.1 µM | [5] > 100 µM | [19] 31.3 µM | [6] > 100 µM | [7] > 100 µM | [20] 95.1 µM | [8] > 100 µM | [9] > 100 µM | [10] > 100 µM | [11] > 54.1 µM | [12] > 53.2 µM | [13] 40 µM | [14] 39.1 µM | [15] > 100 µM | [16] 24.7 µM | [17] > 100 µM | [18] > 100 µM

[N-]=[N+]=NC1(Cc2ccccc2)C(=O)Nc2ccccc2C1=O (stereo unspecified)
inactive: [1] > 100 µM | [2] > 100 µM | [3] > 100 µM | [4] > 100 µM | [5] > 100 µM | [6] > 100 µM | [7] > 100 µM | [8] 91.6 µM | [9] > 100 µM | [10] > 100 µM | [11] > 100 µM | [12] > 100 µM | [13] > 100 µM | [14] > 100 µM | [15] > 100 µM | [16] > 100 µM | [17] > 100 µM | [18] 39.6 µM

N#C/C(=C\c1ccc(O)c(O)c1)C(N)=O
inactive: [1] 41.6 µM | [2] 95.9 µM | [3] 48.2 µM | [4] 51.2 µM | [5] 69.8 µM | [6] 34.6 µM | [7] 55.6 µM | [8] 28.2 µM | [9] 67.1 µM | [10] > 100 µM | [11] 43.4 µM | [12] 35 µM | [13] 39.1 µM | [14] 30.5 µM | [15] 39.2 µM | [16] 17.7 µM | [17] 36 µM | [18] 31.8 µM
